Source: US4626523A, “GRF analogs II” (The Salk Institute for Biological Studies, priority 1985, dated 1986)
Square brackets hold non-standard residues; d marks the D form. Ends that are not written are not given here. Peptide text beside a SMILES is read from it. NMeY = CN[C@@H](Cc1ccc(O)cc1)C(=O)O; NMeF = CN[C@@H](Cc1ccccc1)C(=O)O; Nle = CCCC[C@H](N)C(=O)O

Tests used:
[1] = test system: secretion of pituitary GH; experiment: in vivo GH secretion in freely running normal male rats pretreated with FLA-63; parameters: species or system rat; conditions: injection through indwelling catheter, blood samples prior to and 5 and 20 minutes after injection
Procedure: In addition to the in vitro tests for secretion of growth hormone, in vivo experiments inject the synthetic peptides through an indwelling catheter into freely running normal male rats after pretreating them with FLA-63, a dopamine hydroxylase inhibitor that suppresses spontaneous GH secretion without affecting the response to exogenous GRF. Blood samples are taken through the same catheter immediately prior to and 5 and 20 minutes after injections. […] Dosages between about 100 nanograms and about 50 micrograms per Kg. of body weight are considered to be effective in causing secretion.

[2] = test system: cells of rat pituitary glands; experiment: in vitro GH release assay in cultured rat pituitary cells, side-by-side with hpGRF(1-40)-OH standard; assay type: cell-based; conditions: for Comparison % (GH release relative to hpGRF(1-40)-OH standard): equimolar concentrations, incubation 3 to 4 hours, immunoreactive GH in culture medium by radioimmunoassay, hpGRF(1-40)-OH = 100%
Procedure: To determine the effectiveness of the various synthetic peptides to promote the release of growth hormone, in vitro assays are carried out using synthetic hpGRF(1-40)--OH as a standard in side-by-side comparison with equimolar concentrations of the various other analogs and fragments synthesized. Cultures are used which include cells of rat pituitary glands removed some three to five days previously. Cultures which are considered optimal for the secretion of growth hormone are used for the comparative testing, in the general manner described in Vale et al. Endocrinology , 91, 562-572 (1972) and as more particularly described in Vale et al. Endocrinology, (1983), in press. Incubation with the substance to be tested is carried out for 3 to 4 hours, and aliquots of the culture medium are removed and processed to measure their contents in immunoreactive GH(ir GH) by a well-characterized radioimmunoassay.

Compound | duration of GH-releasing action compared with hpGRF(1-32)-NH2 [1] | stimulation of secretion of pituitary GH (GH levels in blood) ([1]; radioimmunoassay) | Comparison % (GH release relative to hpGRF(1-40)-OH standard) [2] | maximum effective concentration ([2]; in vitro, rat pituitary cell cultures)
CC[C@H](C)[C@H](NC(=O)[C@H](C)NC(=O)[C@H](CC(=O)O)NC(=O)[C@H](C)NC(=O)[C@H](Cc1ccccc1)NC)C(=O)N[C@@H](Cc1ccccc1)C(=O)N[C@H](C(=O)N[C@@H](CC(N)=O)C(=O)N[C@@H](CO)C(=O)N[C@@H](Cc1ccc(O)cc1)C(=O)N[C@@H](CCCNC(=N)N)C(=O)N[C@@H](CCCCN)C(=O)N[C@H](C(=O)N[C@@H](CC(C)C)C(=O)NCC(=O)N[C@@H](CCC(N)=O)C(=O)N[C@@H](CC(C)C)C(=O)N[C@@H](CO)C(=O)N[C@@H](C)C(=O)N[C@@H](CCCNC(=N)N)C(=O)N[C@@H](CCCCN)C(=O)N[C@@H](CC(C)C)C(=O)N[C@@H](CC(C)C)C(=O)N[C@@H](CCC(N)=O)C(=O)N[C@@H](CC(=O)O)C(=O)N[C@H](C(=O)N[C@@H](CCSC)C(=O)N[C@@H](CO)C(=O)N[C@@H](CCCNC(=N)N)C(=O)N[C@@H](CCC(N)=O)C(=O)N[C@@H](CCC(N)=O)C(=O)NCC(N)=O)[C@@H](C)CC)C(C)C)[C@@H](C)O [[N^a MePhe^1]-hpGRF(1-32)-NH2] (H-[NMeF]ADAIFTNSYRKVLGQLSARKLLQDIMSRQQG-NH2) | substantially longer duration that hpGRF(1-32)-NH2 | powerful stimulators of the secretion of pituitary GH | 12% | 5 to 10 nM
CCCC[C@H](NC(=O)[C@@H](NC(=O)[C@H](CCC(=O)O)NC(=O)[C@H](Cc1c[nH]cn1)NC(=O)[C@H](CC(C)C)NC(=O)[C@H](CC(C)C)NC(=O)[C@H](CCCCN)NC(=O)[C@H](CCCNC(=N)N)NC(=O)[C@H](C)NC(=O)[C@H](Cc1ccc(O)cc1)NC(=O)[C@H](CC(C)C)NC(=O)[C@H](CCC(N)=O)NC(=O)CNC(=O)[C@H](CC(C)C)NC(=O)[C@@H](NC(=O)[C@H](CCCNC(=N)N)NC(=O)[C@H](CCCNC(=N)N)NC(=O)[C@H](Cc1ccc(O)cc1)NC(=O)[C@H](CO)NC(=O)[C@H](CO)NC(=O)[C@@H](NC(=O)[C@H](Cc1ccccc1)NC(=O)[C@@H](NC(=O)[C@H](C)NC(=O)[C@H](CC(=O)O)NC(=O)[C@H](C)NC(=O)[C@H](Cc1ccc(O)cc1)NC)[C@@H](C)CC)[C@@H](C)O)[C@@H](C)CC)[C@@H](C)CC)C(=O)N[C@@H](CC(N)=O)C(=O)N[C@@H](CCCNC(=N)N)C(N)=O [[N^a MeTyr^1, Nle^27]-rhGRF(1-29)-NH2, H-N^a MeTyr-Ala-Asp-Ala-Ile-Phe-Thr-Ser-Ser-Tyr-Arg-Arg-Ile-Leu-Gly-Gln-Leu-Tyr- Ala-Arg-Lys-Leu-Leu-His-Glu-Ile-Nle-Asn-Arg-NH2] (H-[NMeY]ADAIFTSSYRRILGQLYARKLLHEI[Nle]NR-NH2) | – | – | 1130% | –
CC[C@H](C)[C@H](NC(=O)[C@H](C)NC(=O)[C@H](CC(=O)O)NC(=O)[C@H](C)NC(=O)[C@H](Cc1ccc(O)cc1)NC)C(=O)N[C@@H](Cc1ccccc1)C(=O)N[C@H](C(=O)N[C@@H](CC(N)=O)C(=O)N[C@@H](CO)C(=O)N[C@@H](Cc1ccc(O)cc1)C(=O)N[C@@H](CCCNC(=N)N)C(=O)N[C@@H](CCCCN)C(=O)N[C@H](C(=O)N[C@@H](CC(C)C)C(=O)NCC(=O)N[C@@H](CCC(N)=O)C(=O)N[C@@H](CC(C)C)C(=O)N[C@@H](CO)C(=O)N[C@@H](C)C(=O)N[C@@H](CCCNC(=N)N)C(=O)N[C@@H](CCCCN)C(=O)N[C@@H](CC(C)C)C(=O)N[C@@H](CC(C)C)C(=O)N[C@@H](CCC(N)=O)C(=O)N[C@@H](CC(=O)O)C(=O)N[C@H](C(=O)N[C@@H](CCSC)C(=O)N[C@@H](CO)C(=O)N[C@@H](CCCNC(=N)N)C(=O)N[C@@H](CCC(N)=O)C(=O)N[C@@H](CCC(N)=O)C(=O)NCC(N)=O)[C@@H](C)CC)C(C)C)[C@@H](C)O [[N^a MeTyr^1]hpGRF(1-32)-NH2, H-N^a MeTyr-Ala-Asp-Ala-Ile-Phe-Thr-Asn-Ser-Tyr-Arg-Lys-Val-Leu-Gly-Gln-Leu-Ser- Ala-Arg-Lys-Leu-Leu-Gln-Asp-Ile-Met-Ser-Arg-Gln-Gln-Gly-NH2] | – | – | 184% | –
H-C^a MePhe(4Cl)-Ala-Asp-Ala-Ile-Phe-Thr-Asn-Ser-Tyr-Arg-Lys-Val-Leu-Gly-Gln-Leu-Ser-Ala-Arg-Lys-Leu-Leu-Gln-Asp-Ile-Met-Ser-Arg-Gln-Gln-Gly-NH2 [[C^a Me/4Cl-Phe^1]-hpGRF(1-32)-NH2] | – | – | 5% | –
hpGRF(1-40)-OH (YADAIFTNSYRKVLGQLSARKLLQDIMSRQQGESNQERGA-OH; UniProt P01286 32-71, looked up, fragment) [synthetic human pancreas GH releasing factor fragment used as standard in the in vitro assay, reference compound] | – | – | 100% | –
